Reference: patent US7767679B2, “Sulfonylamino-derivatives as novel inhibitors of histone deacetylase” (Janssen Pharmaceutica N.V., priority 2002, dated 2010)

Tests used:
[1] = tested on: A2780 ovarian carcinoma cells; experiment: Antiproliferative activity on A2780 cells (MTT); assay type: cell-based; settings: Homo sapiens, 96 h, four days of incubation, read-out: Cellular activity pIC50 (converted)
Description: Cellular activity of the compounds of formula (I) was determined on A2780 tumour cells using a colorimetric assay for cell toxicity or survival (Mosmann Tim, Journal of Immunological Methods 65: 55-63, 1983)(see example C.2).
All compounds tested were dissolved in DMSO and further dilutions were made in culture medium. Final DMSO concentrations never exceeded 0.1% (v/v) in cell proliferation assays. Controls contained A2780 cells and DMSO without compound and blanks contained DMSO but no cells. MTT was dissolved at 5 mg/ml in PBS. A glycine buffer comprised of 0.1 M glycine and 0.1 M NaCl buffered to pH 10.5 with NaOH (1 N) was prepared (all reagents were from Merck).
The human A2780 ovarian carcinoma cells (a kind gift from Dr. T. C. Hamilton [Fox Chase Cancer Centre, Pennsylvania, USA]) were cultured in RPMI 1640 medium supplemented with 2 mM L-glutamine, 50 μg/ml gentamicin and 10% fetal calf serum. Cells were routinely kept as monolayer cultures at 37° C. in a humidified 5% CO2 atmosphere. Cells were passaged once a week using a trypsin/EDTA solution at a split ratio of 1:40. All media and supplements were obtained from Life Technologies. Cells were free of mycoplasma contamination as determined using the Gen-Probe Mycoplasma Tissue Culture kit (supplier: BioMérieux).
Cells were seeded in NUNC™ 96-well culture plates (Supplier: Life Technologies) and allowed to adhere to the plastic overnight. Densities used for plating were 1500 cells per well in a total volume of 200 μl medium. After cell adhesion to the plates, medium was changed and drugs and/or solvents were added to a final volume of 200 μl. Following four days of incubation, medium was replaced by 200 μl fresh medium and cell density and viability was assessed using an […] assay. To each well, 25 μl μl MTT solution was added and the cells were further incubated for 2 hours at 37° C. The medium was then carefully aspirated and the blue MT-formazan product was solubilized by addition of 25 μl glycine buffer followed by 100 μl of DMSO. […] Within an experiment, the results for each experimental condition are the mean of 3 replicate wells. For initial screening purposes, compounds were tested at a single fixed concentration of 10^−6 M. For active compounds, the experiments were repeated to establish full concentration-response curves. For each experiment, controls (containing no drug) and a blank incubation (containing no cells or drugs) were run in parallel. The blank value was subtracted from all control and sample values. For each sample, the mean value for cell growth (in absorbance units) was expressed as a percentage of the mean value for cell growth of the control. […] Herein the effects of test compounds are expressed as pIC50 (the negative log value of the IC50-value).

[2] = molecular target: histone deacetylase (HeLa nuclear extracts); experiment: In vitro assay for inhibition of histone deacetylase; assay type: biochemical; settings: HeLa nuclear extracts 60 μg/ml, [3H]acetylated histone H4 peptide substrate, 30 min
Description: The in vitro assay for inhibition of histone deacetylase (see example C.1) measures the inhibition of HDAC enzymatic activity obtained with the compounds of formula (I).
HeLa nuclear extracts (supplier: Biomol) were incubated at 60 μg/ml with 2×10^−8 M of radiolabeled peptide substrate. As a substrate for measuring HDAC activity a synthetic peptide, i.e. the amino acids 14-21 of histone H4, was used. The substrate is biotinylated at the NH2-terminal part with a 6-aminohexanoic acid spacer, and is protected at the COOH-terminal part by an amide group and specifically [^3H]acetylated at lysine 16. The substrate, biotin-(6-aminohexanoic)Gly-Ala-([^3H]-acetyl-Lys-Arg-His-Arg-Lys-Val-NH2), was added in a buffer containing 25 mM Hepes, 1 M sucrose, 0.1 mg/ml BSA and 0.01% Triton X-100 at pH 7.4. After 30 min the deacetylation reaction was terminated by the addition of HCl and acetic acid. (final concentration […] respectively). After stopping the reaction, the free ^3H-acetate was extracted with ethylacetate. After mixing and centrifugation, the radioactivity in an aliquot of the upper (organic) phase was counted in β-counter.
For each experiment, controls (containing HeLa nuclear extract and DMSO without compound), a blank incubation (containing DMSO but no HeLa nuclear extract or compound) and samples (containing compound dissolved in DMSO and HeLa nuclear extract) were run in parallel. In first instance, compounds were tested at a concentration of 10^−5M. […] In each test the blank value was substracted from both the control and the sample values. The control sample represented 100% of substrate deactylation. For each sample the radioactivity was expressed as a percentage of the mean value of the controls. […] Herein the effects of test compounds are expressed as pIC50 (the negative log value of the IC50-value).

Row | SMILES | IC50 [1] | Enzyme activity pIC50 [2] | melting point
1 | COc1cccc(-c2ccccc2S(=O)(=O)NCC2CCN(c3ncc(C(=O)NO)cn3)CC2)c1 [compound 42] | 455 nM | 7.584 | –
2 | O=C(NO)c1cnc(N2CCC(CNS(=O)(=O)c3ccccc3-c3ccc(CO)cc3)CC2)nc1 [compound 36] | 1050 nM | 7.265 | –
3 | O=C(Nc1ccc(N2CCC(NS(=O)(=O)c3ccc4ccccc4c3)CC2)cc1)/C(Cc1ccccc1)=N/O [compound 19] | 4300 nM | <5 | –
4 | O=C(NO)c1ccc(N2CCC(NS(=O)(=O)c3ccc4ccccc4c3)C2)cc1 (stereo not drawn) [compound 16] | > 10000 nM | 6.293 | –
5 | COc1ccc(-c2ccccc2S(=O)(=O)NCC2CCN(c3ncc(C(=O)NO)cn3)CC2)cc1 [compound 45] | 513 nM | 7.371 | –
6 | O=C(NO)c1cnc(N2CCC(NS(=O)(=O)c3ccc4ccccc4c3)CC2)nc1N1CCN(S(=O)(=O)c2ccc3ccccc3c2)CC1 [Co. No. 6] | 2090 nM | <5 | 80 °C
7 | CN(C)c1ccc(-c2ccccc2S(=O)(=O)NCC2CCN(c3ncc(C(=O)NO)cn3)CC2)cc1 [compound 44] | 643 nM | 7.432 | –
8 | CO[C@@H]1CN(c2ncc(C(=O)NO)cn2)CC[C@@H]1NS(=O)(=O)c1ccc2ccccc2c1 [compound 23] | 3370 nM | 6.662 | –
9 | O=C(NO)c1cnc(N2CCCC(NS(=O)(=O)c3ccc4ccccc4c3)CC2)nc1 (stereo not drawn) [compound 24] | 1070 nM | 7.903 | –
10 | O=C(NO)c1cnc(N2CCN(CCCNS(=O)(=O)c3ccc4ccccc4c3)CC2)nc1 [Co. No. 26] | 546 nM | 7.85 | –
11 | O=C(NO)c1cnc(N2CCN(CCNS(=O)(=O)c3ccc4ccccc4c3)CC2)nc1 [compound 32] | 556 nM | 7.526 | –
12 | O=C(NO)c1cnc(N2CCC(CNS(=O)(=O)c3ccc(-c4ccccc4)cc3)CC2)nc1 [compound 21] | 362 nM | 8.199 | –
13 | Cc1ccccc1-c1ccccc1S(=O)(=O)NCC1CCN(c2ncc(C(=O)NO)cn2)CC1 [compound 41] | 471 nM | 7.403 | –
14 | O=C(Nc1ccc(N2CCC(NS(=O)(=O)c3ccc(-c4ccccc4)cc3)CC2)cc1)/C(Cc1ccccc1)=N/O [Co. No. 3] | 1800 nM | <5 | 262 °C
15 | CN(C1CCN(c2ncc(C(=O)NO)cn2)CC1)S(=O)(=O)c1ccc2ccccc2c1 [Co. No. 29] | 3720 nM | 7.04 | > 260 °C
16 | CN(C1CCN(c2ncc(C(=O)NO)cn2)C1)S(=O)(=O)c1ccc2ccccc2c1 (stereo not drawn) [Co. No. 27] | 1660 nM | 7.49 | 158 °C
17 | Cc1cccc(-c2ccccc2S(=O)(=O)NCC2CCN(c3ncc(C(=O)NO)cn3)CC2)c1 [compound 39] | 885 nM | 7.126 | –
18 | O=C(NO)c1cnc(N2CCN(CCCNS(=O)(=O)c3ccc4ccccc4c3)CC2)nc1 (hydrate or solvate) [Co. No. 26] | – | – | 115 °C

Row | SMILES | IC50 [1] | Enzyme activity pIC50 [2] | melting point
19 | O=C(NO)c1cnc(N2CCC(N(CCO)S(=O)(=O)c3ccc4ccccc4c3)CC2)nc1 [compound 34] | 2400 nM | 7.337 | –
20 | COCCN(C1CCN(c2ncc(C(=O)NO)cn2)CC1)S(=O)(=O)c1ccc2ccccc2c1 [compound 35] | 1160 nM | 7.046 | –
21 | Cc1cc(C(=O)NO)ccc1N1CCC(NS(=O)(=O)c2ccc3ccccc3c2)CC1 [compound 11] | 1640 nM | 5.829 | –
22 | O=C(NO)c1cnc(N2CCC(NS(=O)(=O)c3ccc4ccccc4c3)C2)nc1 (stereo not drawn) [compound 31] | 5960 nM | 7.857 | –
23 | O=C(NO)c1ccc(N2CCC(NS(=O)(=O)c3ccc(-c4ccccc4)cc3)C2)nc1 (stereo not drawn) [compound 18] | 49.8 nM | 5.321 | –
24 | O=C(NO)c1ccc(N2CCC(NS(=O)(=O)c3ccc4ccccc4c3)C2)nc1 (stereo not drawn) [compound 17] | > 10000 nM | 6.95 | –
25 | O=C(NO)c1cnc(N2CCC(CNS(=O)(=O)c3ccccc3-c3cccc(CO)c3)CC2)nc1 [compound 37] | 2180 nM | 7.341 | –
26 | O=C(NO)c1cnc(N2CCC(CNS(=O)(=O)c3ccccc3-c3ccsc3)CC2)nc1 [compound 40] | 685 nM | 7.273 | –
27 | O=C(NO)c1ccc(N2CCCC(NS(=O)(=O)c3ccc4ccccc4c3)CC2)nc1 (stereo not drawn) [Co. No. 10] | 2120 nM | 6.893 | 142 °C
28 | O=C(NO)c1cnc(N2CCC(CNS(=O)(=O)N3CCOCC3)CC2)nc1 [Co. No. 28] | 7780 nM | 7.074 | 217 °C
29 | O=C(NO)c1cnc(N2CCC(CNS(=O)(=O)c3ccccc3-c3ccoc3)CC2)nc1 [compound 38] | 1160 nM | 7.154 | –
30 | CS(=O)(=O)c1ccc(-c2ccccc2S(=O)(=O)NCC2CCN(c3ncc(C(=O)NO)cn3)CC2)cc1 [Co. No. 30] | 2140 nM | 7.614 | –
31 | O=C(NO)c1cnc(N2CCC(CNS(=O)(=O)c3ccccc3-c3cc4ccccc4o3)CC2)nc1 [compound 43] | 738 nM | 7.469 | –
32 | O=C(NO)c1ccc(N2CCC(NS(=O)(=O)c3ccc(-c4ccccc4)cc3)CC2)cc1 [compound 14] | 2090 nM | 6.116 | –
33 | O=C(NO)c1ccc(N2CCC(NS(=O)(=O)c3ccc4ccccc4c3)CC2)nc1 [compound 12] | 2910 nM | 7.438 | –
34 | O=C(NO)c1ccc(N2CCC(NS(=O)(=O)c3ccc4ccccc4c3)CC2)cc1 [Co. No. 1] | 5280 nM | 6.523 | –
35 | Cc1cc(C(=O)NO)ccc1N1CCC(NS(=O)(=O)c2ccc(-c3ccccc3)cc2)CC1 [compound 13] | 698 nM | 5.428 | –
36 | O=C(NO)c1cnc(N2CCC(NS(=O)(=O)N3CCOCC3)CC2)nc1 [Co. No. 25] | > 10000 nM | 6.449 | 217 °C
